Data as given in publication PMC9061822, “A novel SRSF3 inhibitor, SFI003, exerts anticancer activity against colorectal cancer by modulating the SRSF3/DHCR24/ROS axis” (Cell Death Discovery, 2022).
“Also recorded” adds a separate entry of the source. Like-named read-outs stand apart in the source and are kept apart here. Where a SMILES comes first, the peptide text is derived from it. The star is where a group is joined. Cbz = O=C(OCc1ccccc1)*

How the values were obtained:
SRSF3 = target: T1, SRSF3 (Homo sapiens, UniProt P84103); test: Western blot of SRSF3 protein in HCT-116 and SW480 cells; type: cell-based; set-up: endogenous in cells; host or cells: HCT-116 and SW480; conditions: for effect on SFI003-induced SRSF3 degradation: HCT-116 and SW480, 20 μM SFI003 plus 3 μM MLN4924, 50 μM CHQ or 10 μM MG132 for 12 h
T1 sequence (P84103 1-164): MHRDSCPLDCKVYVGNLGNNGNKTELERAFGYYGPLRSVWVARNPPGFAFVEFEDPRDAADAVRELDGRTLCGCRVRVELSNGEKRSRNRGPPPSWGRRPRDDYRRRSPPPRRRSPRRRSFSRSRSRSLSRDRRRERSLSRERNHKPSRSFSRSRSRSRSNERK
Description: (§1) After cell lysates were prepared, protein concentrations were determined by a BCA assay (TaKaRa, Kusatsu, Japan). Equal amounts of protein were separated by SDS–PAGE and transferred to polyvinylidene difluoride membranes. After normalization, the blots were probed with appropriate antibodies, as described previously.

ROS = test: Detection of ROS (DCFH-DA) in HCT-116 and SW480 cells; type: cell-based, Human; conditions: 72 h
Description: Following treatment with SFI003 or siRNA, the cells were washed with PBS and incubated with DCFH-DA for 20 min at 37 °C. After washing three times, the cells were collected and measured at 488 nm excitation and 525 nm emission by a microplate reader (Tecan, Switzerland) according to the manufacturer’s instructions (Beyotime, Shanghai, China). The protein concentrations were determined by using a BCA assay (TaKaRa, Kusatsu, Japan).

HCT-116 and SW480 cells [1] = test: WB of EMT and apoptosis markers with ROS scavengers; type: cell-based, Human; conditions: 20 μM SFI003 with 5 mM NAC or 100 μM Trolox, 72 h
Description: as §1

HCT-116 cells = test: MTT assay in HCT-116 cells; type: cell-based, Human
Description: (§2) Human CRC cell lines were purchased from the American Type Culture Collection (VA, USA). HCT-116 cells were cultured in DMEM (HyClone, Utah, USA) containing 10% fetal bovine serum (FBS; Gibco, NY, USA). SW480 cells were cultured in RPMI 1640 medium (HyClone, Utah, USA) containing 10% FBS. All cells were cultured in an incubator (Thermo, CA, USA) at a constant temperature of 37 °C and 5% CO2. N-Acetylcysteine (NAC), Trolox, MLN4924, 5-Fu, and capecitabine were purchased from MedChemExpress LLC (Shanghai, China). MG132 was purchased from Santa Cruz Biotech (CA, USA). Chloroquine (CHQ) was purchased from Sigma (CA, USA). Rapamycin was purchased from Beyotime (Shanghai, China). Primary antibodies against SRSF3 and E-Cadherin were purchased from Abcam (Cambridge, UK). Primary antibodies against N-Cadherin, Caspase 3, DHCR24, CAT, Akt and phospho-Akt (Ser473) were purchased from Cell Signaling Technology (MA, USA). Primary antibodies against β-actin, mTOR, and phospho-mTOR ([…]) were purchased from Beyotime (Shanghai, China). Primary antibody against Vimentin was purchased from Proteintech (Wuhan, China). Primary antibody against Bcl-2 was purchased from Santa Cruz Biotech (CA, USA). Primary antibody against Flag was purchased from MBL Beijing Biotech (Beijing, China). CRC cells were transfected with 100 nM siRNA or treated with various doses of SFI003 for 24 h, 48 h, or 72 h before being subjected to MTT assay as described previously.

SW480 cells = test: MTT assay in SW480 cells; type: cell-based, Human
Description: as §2

HCT-116 xenografts = HCT-116 xenografts in SCID mice; type: in vivo; conditions: two weeks; for number of tumors that disappeared: HCT-116 xenografts
Description: (§3) To explore the effect of SFI003 on the growth of CRC, approximately 3 × 10^6 HCT-116 cells or 8 × 10^6 SW480 cells were collected and mixed with Matrigel (Corning, NY, USA) at a 1:1 ratio by volume and then injected into the lower back region of mice. When tumors were palpable, mice were randomly divided into four groups. One group received vehicle as a control, while the other three groups were orally administered SFI003 at a dosage of 100 or 200 mg/kg or capecitabine at a dosage of 100 mg/kg for two continuous weeks. The tumor sizes and mouse body weights were monitored every other day. At the end of the experiment, tumors and blood samples were collected for further studies. The tumor size was evaluated according to Eq.: tumor size (mm^3) = (length × width^2) × 0.5.

SW480 xenografts = SW480 xenografts in SCID mice; type: in vivo
Description: as §3

[2] = Pharmacokinetics in ICR mice; type: in vivo; conditions: mouse, plasma
Description: 29 the blood samples by centrifuging at 5,000 rpm under 4℃ for 5 min. […]
(§4) 33 or tissue sample was added into 100 µl acetonitrile containing internal standard
(§5) 34 Tolbutamide. The mixture was vortexed for 3 min and centrifuged at 13,000 rpm for 10
(§6) 35 min. An aliquot of 10 µl resulting supernatant was injected to LC -MS/MS system
(§7) 36 (API4000 QTrap; AB Sciex) for compound analysis. The analytes were separated in a
(§8) 37 Venusil XBP-C18 column (2.1×50 mm, 5 μm; Agela, China) using the mixture of 5mM
(§9) 38 NH4OAc-0.1% formic acid (A) and methanol (B) as mobile phase. The gradient
(§10) 39 condition was: 1.3 min, 2%B; 2.0 min, 90%B; 3.5 min, 90%B; 3.8 min, 2%B. The elutes
(§11) 40 were detected by MS/MS spectrometry using ESI positive mode with m/z 271.1>172.2,
(§12) 42 SFI003. […]
52 Druggability evaluation of SFI003
53 Next, we evaluated the druggability of SFI003. We first examined the
54 pharmacokinetic properties of SFI003 in mice. We measured the plasma concentration
55 of SFI003 in mice after oral administration of 100 mg/kg SFI003.

[3] = Tissue distribution in ICR mice; type: in vivo; conditions: oral 100 mg/kg
Description: 29 the blood samples by centrifuging at 5,000 rpm under 4℃ for 5 min. For
30 determination of SFI003 concentration in mice tissues, the male ICR mice (n=3) were
31 orally administrated with 100mg/kg SFI003, and the liver and kidney of the mice were
32 collected at 0.25, 0.5, 1, 2, 4, 8, and 12 h after administration. An aliquot of 25 µl plasma
as §4, §5, §6, §7, §8, §9, §10, §11, §12

[4] = Metabolic stability in human liver microsomes; type: in vitro ADME
[5] = Metabolic stability in rat liver microsomes; type: in vitro ADME
Plasma protein binding = type: in vitro ADME; conditions: read-out: plasma protein binding rate (converted)
[6] = tested on: CCDC50S, p53α and p53β mRNA; test: RT-PCR of SRSF3 target gene mRNA in HCT-116 and SW480 cells; type: cell-based, Human; conditions: 20 μM, 72 h
Description: (§13) HCT-116 and SW480 cells were transfected with 100 nM siRNA for 48 h or treated with SFI003 for 72 h. Total RNA was isolated by using TRIzol (Invitrogen, CA, USA) according to the manufacturer’s instructions and then was reversely transcribed into cDNA with random primers (TaKaRa, Kusatsu, Japan) and RT-Kit (Thermo, CA, USA). The cDNA was amplified by PCR using the primers listed in Supplementary Table 1.

[7] = Serum biochemical analysis / tolerability in treated mice; type: in vivo
Description: as §3

HCT-116 and SW480 cells [8] = test: Wound-healing and Transwell migration assays; type: cell-based, Human; conditions: HCT-116 and SW480, 10 μM, 24 h
Description: HCT-116 and SW480 cells were seeded into six-well plates in confluent monolayers. Then, the cells were transfected with 100 nM siRNA or treated with 10 μM SFI003. Scratch wounds were created using a sterilized tip in 0.5% serum medium. Images were captured at 0 h, 24 h, and 72 h after wounding. Three independent measurements of wound width were conducted.
HCT-116 and SW480 cells (1 × 10^5) were resuspended in 200 µl medium containing 0.1% serum and then added to the upper compartment of migration chambers (Costar, Corning, NY, USA). The bottom chamber was filled with 600 µl cell culture medium with 20% FBS as an attractant. After coculture for 24 h or 48 h, the cells were fixed in 4% paraformaldehyde and stained with 0.1% crystal violet. The stained cells in 8 random fields were counted at ×100 magnification. Three independent measurements were conducted.

DHCR24 = test: RT-PCR and WB of DHCR24 in HCT-116 and SW480 cells; type: cell-based, Human; conditions: HCT-116 and SW480, 20 μM, 72 h
Description: as §13, §1

Akt-mTOR pathway = test: WB of p-Akt and p-mTOR in HCT-116 and SW480 cells; type: cell-based, Human; conditions: HCT-116 and SW480, 20 μM, 72 h
Description: as §1

[9] = Pharmacokinetics in ICR mice; type: in vivo; conditions: mouse, plasma, iv, 10 mg/kg
[10] = read-out: intrinsic clearance (converted)
[11] = SFI003-treated tumor-bearing mice

Structure (SMILES): CC(C)C[C@@H](C=O)NC(=O)[C@H](CC(C)C)NC(=O)[C@H](CC(C)C)NC(=O)OCc1ccccc1 [MG132] (Cbz-Leu-Leu-Leu-aldehyde)
- effect on SFI003-induced SRSF3 degradation (SRSF3): rescued

Structure (SMILES): NS(=O)(=O)OC[C@@H]1C[C@@H](n2ccc3c(N[C@H]4CCc5ccccc54)ncnc32)C[C@@H]1O [MLN4924]
- effect on SFI003-induced SRSF3 degradation (SRSF3): rescued

Structure (SMILES): CC(=O)N[C@@H](CS)C(=O)O [NAC, N-Acetylcysteine]
- effect on SFI003-induced ROS (ROS; 20 μM SFI003 with 5 mM NAC or 100 μM Trolox): significantly reversed
- effect on SFI003-induced apoptosis and migration disability (HCT-116 and SW480 cells [1]): reversed

Structure (SMILES): COc1ccc(-c2csc(N/N=C(\C)c3nc4ccccc4[nH]3)n2)cc1 [SFI003]
- cytotoxicity after SRSF3 silencing (HCT-116 cells; HCT-116, SRSF3 siRNA 24 h, then 10 μM for 72 h): eliminated
- inhibition of proliferation (HCT-116 cells; HCT-116, various doses, 24, 48 and 72 h): dose- and time-dependent
- IC50 compared with the other synthesized compounds (HCT-116 cells; HCT-116 cells, 72 h): the most potent compound with the lowest IC50 value
- IC50 (HCT-116 cells; Homo sapiens, HCT-116 cells, 72 h): 8.78 µM
- IC50 (SW480 cells; Homo sapiens, SW480 cells, 72 h): 48.7 µM
- cytotoxicity after SRSF3 silencing (SW480 cells; SW480, SRSF3 siRNA 24 h, then 50 μM for 72 h): eliminated
- inhibition of proliferation (SW480 cells; SW480, various doses, 24, 48 and 72 h): dose- and time-dependent
- growth of HCT-116 xenografts (HCT-116 xenografts; 100 or 200 mg/kg orally, dose-dependent): efficiently suppressed
- number of tumors that disappeared (HCT-116 xenografts; 100 mg/kg orally, 100 mg/kg): two and two of six
- number of tumors that disappeared (HCT-116 xenografts; 200 mg/kg orally): three
- growth of SW480 xenografts (SW480 xenografts; 100 or 200 mg/kg orally, two weeks, dose-dependent): efficiently suppressed
- body weight (SW480 xenografts; SW480 tumor-bearing mice, oral, two weeks): slight reduction
- antitumor activity compared with capecitabine (SW480 xenografts; SW480 xenografts, oral, two weeks, capecitabine 100 mg/kg): stronger inhibitory activity than capecitabine; also recorded: more potent antitumor efficacy than capecitabine
- concentration of SFI003 in tumors versus plasma (SW480 xenografts; mice grafted with SW480 cells, 100 mg/kg, 2 h): close to the plasma
- bioavailability ([2]; oral, p.o. 100 mg/kg vs i.v. 10 mg/kg, read-out: F (bioavailability)): 52.5%
- AUC(0-inf) ([2]; po, 100 mg/kg): 30900 ng·h/mL
- AUC(0-t) ([2]; po, 100 mg/kg): 30900 ng·h/mL
- Tmax ([2]; po, 100 mg/kg): 2 h
- half-life ([2]; po, 100 mg/kg): 1.86 h
- MRT inf ([2]; po, 100 mg/kg, read-out: MRTINF_obs): 4.66 h
- Cmax ([2]; po, 100 mg/kg): 4440 ng/mL
- distribution to liver and kidney [3]: highly accumulated
- half time [4]: 31.50 min
- CLint scaled [4, 10]: 55.2 mL/min/kg
- half time [5]: 53.31 min
- CLint scaled [5, 10]: 46.7 mL/min/kg
- fraction unbound (Plasma protein binding): 0.586
- mRNA level of CCDC50S [6]: markedly reduced
- mRNA level of p53α [6]: markedly reduced
- mRNA level of p53β [6]: elevated
- ROS level (ROS; HCT-116 and SW480, 10, 20 and 50 μM, dose-dependent): significantly enhanced
- serum ALP, ALT, AST, GGT [7, 11]: no alteration
- serum CRE and URE [7, 11]: moderate
- tolerability in vivo ([7]; mice): well tolerated
- migration of CRC cells (HCT-116 and SW480 cells [8]): repressed
- DHCR24 mRNA and protein (DHCR24): inhibited
- activities of Akt (p-Akt) and mTOR (p-mTOR) (Akt-mTOR pathway): inhibited
- AUC(0-inf) [9]: 5890 ng·h/mL
- AUC(0-t) [9]: 5890 ng·h/mL
- half-life [9]: 0.4 h
- MRT inf ([9]; read-out: MRTINF_obs): 0.44 h
- Vd ([9]; read-out: Vss): 0.75 L/kg
- level of SRSF3 protein (SRSF3; HCT-116 and SW480 cells, various doses, 72 h): apparently reduced
